Results: patent US11161839B2, “2-quinolone derived inhibitors of BCL6” (Cancer Research Technology Limited, priority 2017, dated 2021)

Tests used:
[1] = molecular target: BCL6-NCOR2(SMRT) corepressor protein-protein interaction (Homo sapiens (Human), UniProt P41182); test: NanoBRET cell assay in transfected HEK293T cells; assay type: cell-based; details: further generated data (Table 2b); HEK293T cells, 6 hr; read-out: NanoBRET cell pIC50 (converted)
Source text: A cellular nano-Bioluminescence Resonance Energy Transfer (nanoBRET) assay (Promega NanoBRET Nano-Glo Detection System, catalogue number N1662) was used to detect inhibition of the BCL6-NCOR2(SMRT) corepressor protein-protein interaction. DNA encoding full length BCL6 and NCOR2 were inserted into pFC32K.NanoLuc and pFC14K.HaloTag vectors (Promega) to produce C-terminal tagged fusion proteins BCL6-nanoLuc and NCOR2-HaloTag, respectively. […] Frozen transfected HEK293T cells were thawed, centrifuged and freezing medium was replaced by phenol red-free OptiMEM+4% FBS (Life Technology). […] Cells were incubated for 6 hr at 37° C./5% CO2 then NanoBRET furimazine substrate (Promega) was added to give a final concentration of 10 μM. After a short centrifugation the plates were read on an Envision (Perkin Elmer) plate reader equipped with a LUM/D600 Dual mirror, Lum 450/40 nm bandpass and D605 nm longpass filters, with a 0.2 sec reading to determine the BRET ratio. The % inhibition at each test concentration was calculated by normalising the BRET ratio to the appropriate high and low controls.

[2] = molecular target: human BCL6 BTB domain (Trx-6xHis-BCL6) (Homo sapiens (Human), UniProt P41182); test: HTRF in vitro assay (BCL6 BTB domain / BCOR-AF633 peptide); assay type: binding
Procedure: The % inhibition at each concentration was calculated by normalising FRET ratio to the appropriate high (DMSO with all reagents) and low (DMSO without BCL6) controls.

[3] = further generated data (Table 1b), 1 nM Trx-6xHis-BCL6, 0.5 nM anti-6xHis-Terbium cryptate
[4] = initially generated data (Table 1a), 10 nM Trx-6xHis-BCL6, 1 nM anti-6xHis-Terbium cryptate

Compound | IC50 [1] | HTRF pIC50 [2, 3] | IC50 ([2]; further generated data (Table 1b), 1 nM Trx-6xHis-BCL6, 0.5 nM anti-6xHis-Terbium cryptate, read-out: HTRF pIC50 (converted)) | HTRF pIC50 [2, 4]
CCC(C)(Nc1cc(=O)n(C)c2ccc(Nc3ccnc(Cl)c3C#N)cc12)c1ncccn1 (stereo not drawn) [Example 24c, 2-chloro-4-((1-methyl-2-oxo-4-((2-(pyrimidin-2-yl)butan-2-yl)amino)-1,2-dihydroquinolin-6-yl)amino)nicotinonitrile] | 5130 nM | 6.45 | – | –
CC(Nc1cc(=O)n(C)c2ccc(Nc3cc(C(=O)N(C)C)nc(Cl)c3C#N)cc12)c1ncccn1 (stereo not drawn) [Example 19b] | 5250 nM | 6.99 | – | –
Cn1c(=O)cc(NC(C)(C)c2ccccn2)c2cc(Nc3ccnc(Cl)c3C#N)ccc21 [Example 11b, 2-chloro-4-((1-methyl-2-oxo-4-((2-(pyridin-2-yl)propan-2-yl)amino)-1,2-dihydroquinolin-6-yl)amino)nicotinonitrile:formic acid (1:1)] | 1290 nM | 6.52 | – | –
CNC(=O)c1cc(Nc2ccc3c(c2)c(NC(C)c2ncccn2)cc(=O)n3C)c(C#N)cn1 (stereo not drawn) [Example 19c] | 29500 nM | – | 891 nM | –
Cn1c(=O)cc(NC2(c3ncccn3)CC2)c2cc(Nc3ccnc(Cl)c3C#N)ccc21 [Example 10u, 2-chloro-4-((1-methyl-2-oxo-4-((1-(pyrimidin-2-yl)cyclopropyl)amino)-1,2-dihydroquinolin-6-yl)amino)nicotinonitrile] | 8710 nM | 6.19 | – | –
CC(=O)N(C)c1cc(Nc2ccc3c(c2)c(NC(C)c2ncccn2)cc(=O)n3C)c(Cl)cn1 (stereo not drawn) [Example 21, N-(5-Chloro-4-((1-methyl-2-oxo-4-((1-(pyrimidin-2-yl)ethyl)amino)-1,2-dihydroquinolin-6-yl)amino)pyridin-2-yl)-N-methylacetamide] | 6760 nM | 6.33 | – | –
Cn1c(=O)cc(NC(C)(C)c2ncccn2)c2cc(Nc3nc(-n4ccc(C(F)(F)F)n4)ncc3Cl)ccc21 [Example 14d, 6-((5-chloro-2-(3-(trifluoromethyl)-1H-pyrazol-1-yl)pyrimidin-4-yl)amino)-1-methyl-4((2-(pyrimidin-2-yl)propan-2-yl)amino)quinolin-2(1H)-one] | 2040 nM | 6.44 | – | –
CC(C)(Nc1cc(=O)n(CC2CCCCC2)c2ccc(Nc3ccnc(Cl)c3C#N)cc12)c1ncccn1 [Example 10o, 2-chloro-4-((1-(cyclohexylmethyl)-2-oxo-4-((2-(pyrimidin-2-yl)propan-2-yl)amino)-1,2-dihydroquinolin-6-yl)amino)nicotinonitrile] | 2290 nM | 6.50 | – | –
C[C@@H](Nc1cc(=O)n(C)c2ccc(Nc3ccnc(Cl)c3C#N)cc12)C1CC1 [Example 10n, (R)-2-chloro-4-((4-((1-cyclopropylethyl)amino)-1-methyl-2-oxo-1,2-dihydroquinolin-6-yl)amino)nicotinonitrile] | 1290 nM | 6.55 | – | –
C[C@@H](CO)Nc1cc(=O)n(C)c2ccc(Nc3ccnc(Cl)c3C#N)cc12 [Example 3g, (S)-2-Chloro-4-((4-((1-hydroxypropan-2-yl)amino)-1-methyl-2-oxo-1,2-dihydroquinolin-6-yl)amino)nicotinonitrile] | 20900 nM | 6.39 | – | 6.43
Cn1c(=O)cc(NC(C)(C)c2ncccn2)c2cc(Nc3cc(C(=O)N4CCC4)nc(Cl)c3C#N)ccc21 [Example 8a, 6-(Azetidine-1-carbonyl)-2-chloro-4-((1-methyl-2-oxo-4-((2-(pyrimidin-2-yl)propan-2-yl)amino)-1,2-dihydroquinolin-6-yl)amino)nicotinonitrile] | 550 nM | 7.78 | – | –
CNC(=O)c1cc(Nc2ccc3c(c2)c(N[C@H](C)C2CC2)cc(=O)n3C)c(C#N)c(Cl)n1 [Example 10i, (R)-6-chloro-5-cyano-4-((4-((1-cyclopropylethyl)amino)-1-methyl-2-oxo-1,2-dihydroquinolin-6-yl)amino)-N-methylpicolinamide] | 1780 nM | 6.96 | – | –
CC(Nc1nc(=O)n(C)c2ccc(Nc3ccnc(Cl)c3C#N)cc12)c1ncccn1 (stereo not drawn) [Example 10h] | 8910 nM | 7.10 | – | –
CCC(C)(COC)Nc1cc(=O)n(C)c2ccc(Nc3cc(C(=O)NC)nc(Cl)c3C#N)cc12 (stereo not drawn) [Example 19f, 6-chloro-5-cyano-4-((4-((1-methoxy-2-methylbutan-2-yl)amino)-1-methyl-2-oxo-1,2-dihydroquinolin-6-yl)amino)-N-methylpicolinamide] | 2950 nM | 6.40 | – | –
Cn1c(=O)cc(NC(C)(C)c2ncccn2)c2cc(Nc3ccnc(Cl)c3C#N)cnc21 [Example 1x, 2-chloro-4-[[8-methyl-5-[(1-methyl-1-pyrimidin-2-yl-ethyl)amino]-7-oxo-1,8-naphthyridin-3-yl]amino]pyridine-3-carbonitrile] | 1580 nM | 7.20 | – | 6.68
CN(C)C(=O)C1CCN(c2ncc(Cl)c(Nc3ccc4c(c3)c(NC3(C#N)CC3)cc(=O)n4C)n2)CC1 [Example 16b, 1-(5-chloro-4-((4-((1-cyanocyclopropyl)amino)-1-methyl-2-oxo-1,2-dihydroquinolin-6-yl)amino)pyrimidin-2-y1)-N,N-dimethylpiperidine-4-carboxamide] | 5010 nM | 6.37 | – | –
COCCC1CCCN1C(=O)c1cc(Nc2ccc3c(c2)c(N[C@H](C)C2CC2)cc(=O)n3C)c(Cl)cn1 (stereo partly drawn) [Example 15b] | 2190 nM | 6.46 | – | –
CN(C)C(=O)C1CCN(c2ncc(Cl)c(Nc3ccc4c(c3)c(NC(C)(C)c3ncccn3)cc(=O)n4C)n2)CC1 [Example 16a, 1-(5-chloro-4-((1-methyl-2-oxo-4-((2-(pyrimidin-2-yl)propan-2-yl)amino)-1,2-dihydroquinolin-6-yl)amino)pyrimidin-2-yl)-N,N-dimethylpiperidine-4-carboxamide] | 2630 nM | 6.58 | – | –
Cn1c(=O)cc(NC(C)(C)c2ncccn2)c2cc(Nc3cc(Cl)nc(Cl)c3Cl)ccc21 [Example 13, 1-methyl-4-((2-(pyrimidin-2-yl)propan-2-yl)amino)-6-((2,3,6-trichloropyridin-4-yl)amino)quinolin-2(1H)-one] | 1700 nM | 6.66 | – | –
COCC(C)(C)Nc1cc(=O)n(C)c2ccc(Nc3nc(-n4nc(C)cc4C)ncc3Cl)cc12 [Example 14e, 6-((5-chloro-2-(3,5-dimethyl-1H-pyrazol-1-yl)pyrimidin-4-yl)amino)-4-((1-methoxy-2-methylpropan-2-yl)amino)-1-methylquinolin-2(1H)-one] | 10000 nM | 6.54 | – | –
CC(Nc1cc(=O)n(C)c2ccc(Nc3ccnc(Cl)c3C#N)cc12)c1ncc(-c2cccnc2)cn1 (stereo not drawn) [Example 20, 2-chloro-4-((1-methyl-2-oxo-4-((1-(5-(pyridin-3-yl)pyrimidin-2-yl)ethyl)amino)-1,2-dihydroquinolin-6-yl)amino)nicotinonitrile] | 479 nM | 7.46 | – | –
CC(Nc1cc(=O)n(C)c2ccc(Nc3ccnc(Cl)c3C#N)cc12)c1ncc(Br)cn1 (stereo not drawn) [Example 10j, 4-((4-((1-(5-bromopyrimidin-2-yl)ethyl)amino)-1-methyl-2-oxo-1,2-dihydroquinolin-6-yl)amino)-2-chloronicotinonitrile] | 1230 nM | 6.92 | – | –
CC(Nc1nc(=O)n(C)c2ccc(Nc3nc(N4C[C@@H](C)O[C@@H](C)C4)ncc3Cl)cc12)c1ncccn1 (stereo partly drawn) [Example 26e, 6-[[5-chloro-2-[(2R,6S)-2,6-dimethylmorpholin-4-yl]pyrimidin-4-yl]amino)-1-methyl-4-(1-pyrimidin-2-ylethylamino)quinazolin-2-one] | 2880 nM | 7.03 | – | –
CC(Nc1cc(=O)n(C)c2ccc(Nc3ccnc(C#N)c3Cl)cc12)c1ncccn1 (stereo not drawn) [Example 19h, 3-chloro-4-((1-methyl-2-oxo-4-((1-(pyrimidin-2-yl)ethyl)amino)-1,2-dihydroquinolin-6-yl)amino)picolinonitrile] | 15100 nM | 6.17 | – | –
CC(Nc1cc(=O)n(C)c2ccc(Nc3nc(N4CCC(CC(=O)N(C)C)CC4)ncc3Cl)cc12)c1ncccn1 (stereo not drawn) [Example 17e, 2-(1-(5-chloro-4-((1-methyl-2-oxo-4-((1-(pyrimidin-2-yl)ethyl)amino)-1,2-dihydroquinolin-6-yl)amino)pyrimidin-2-yl)piperidin-4-yl)-N,N-dimethylacetamide:formic acid (1:1)] | 3470 nM | 6.34 | – | –
C[C@@H](Nc1nc(=O)n(C)c2ccc(Nc3ccnc(Cl)c3C#N)cc12)C1CC1 [Example 10m, (R)-2-chloro-4-((4-((1-cyclopropylethyl)amino)-1-methyl-2-oxo-1,2-dihydroquinazolin-6-yl)amino)nicotinonitrile] | 2750 nM | 6.66 | – | –
Cn1c(=O)cc(NC(C)(C)c2ncc(C3CC3)cn2)c2cc(Nc3ccnc(Cl)c3C#N)ccc21 [Example 10a, 2-chloro-4-((4-((2-(5-cyclopropylpyrimidin-2-yl)propan-2-yl)amino)-1-methyl-2-oxo-1,2-dihydroquinolin-6-yl)amino)nicotinonitrile] | 513 nM | 7.53 | – | –
CC(Nc1cc(=O)n(C)c2ccc(Nc3ccnc(Cl)c3C#N)cc12)c1ncc(N2CCOCC2)cn1 (stereo not drawn) [Example 10x, 2-chloro-4-((1-methyl-4-((1-(5-morpholinopyrimidin-2-yl)ethyl)amino)-2-oxo-1,2-dihydroquinolin-6-yl)amino)nicotinonitrile] | 1260 nM | 7.56 | – | –
CC(Nc1cc(=O)n(C)c2ccc(Nc3ccnc(Cl)c3C#N)cc12)c1ncc(N2C[C@H](C)C[C@H](C)C2)cn1 (stereo partly drawn) [Example 10k, 2-chloro-4-((4-((1-(5-((3R,5S)-3,5-dimethylpiperidin-1-yl)pyrimidin-2-yl)ethyl)amino)-1-methyl-2-oxo-1,2-dihydroquinolin-6-yl)amino)nicotinonitrile] | 1510 nM | 6.82 | – | –
